Laboratory results from patent publication US7008911B2, “Non-surfactant solubilizing agent” (Ecolab, Inc., priority 2002, dated 2006).

Columns and labels:
Assay type in all cases: physicochemical
[1] = Alcohol amine added to aqueous EPh solution until single phase observed; settings: for amount added until a single phase solution was observed: 100 grams total, room temperature
[2] = Alcohol amine added to aqueous PPh solution until single phase observed; settings: aqueous PPh (34-37 wt % PPh, 39-42 wt % water), room temperature, Formulations B-E
[3] = Alcohol amine added to aqueous benzyl alcohol solution until single phase observed; settings: aqueous benzyl alcohol (37 wt %, water 42 wt %), room temperature, Formulation F
[4] = listed as of Table 4 with 1 % Eph in H2O, Eph 1 wt % normalized
[5] = listed as of Table 4 with 2.5 % Eph in H2O, Eph 2 wt % normalized
[6] = listed as of Table 4 with 5 % Eph in H2O, Eph 4 wt % normalized
[7] = listed as of Table 4 with 10 % Eph in H2O, Eph 7-8 wt % normalized
[8] = listed as of Table 4 with 15 % Eph in H2O, Eph 10-12 wt % normalized
[9] = listed as of Table 4 with 20 % Eph in H2O, Eph 14-15 wt % normalized
[10] = listed as of Table 4 with 30 % Eph in H2O, Eph 21-23 wt % normalized
[11] = listed as of Table 4 with 50 % Eph in H2O, Eph 36-40 wt % normalized
[12] = listed as of Table 4 with 75 % Eph in H2O, Eph 58-64 wt % normalized

| amount added until a single phase solution was observed ([1]; 1 % Eph in H2O) | amount added until a single phase solution was observed ([1]; 2.5 % Eph in H2O) | amount added until a single phase solution was observed ([1]; 5 % Eph in H2O) | amount added until a single phase solution was observed ([1]; 10 % Eph in H2O) | amount added until a single phase solution was observed ([1]; 15 % Eph in H2O) | amount added until a single phase solution was observed ([1]; 20 % Eph in H2O) | amount added until a single phase solution was observed ([1]; 30 % Eph in H2O) | amount added until a single phase solution was observed ([1]; 50 % Eph in H2O) | amount added until a single phase solution was observed ([1]; 75 % Eph in H2O) | alcohol amine at single phase, normalized to 100 weight % of water, alcohol amine and EPh [1, 4] | alcohol amine at single phase, normalized to 100 weight % of water, alcohol amine and EPh [1, 5] | alcohol amine at single phase, normalized to 100 weight % of water, alcohol amine and EPh [1, 6] | alcohol amine at single phase, normalized to 100 weight % of water, alcohol amine and EPh [1, 7] | alcohol amine at single phase, normalized to 100 weight % of water, alcohol amine and EPh [1, 8] | alcohol amine at single phase, normalized to 100 weight % of water, alcohol amine and EPh [1, 9] | alcohol amine at single phase, normalized to 100 weight % of water, alcohol amine and EPh [1, 10] | alcohol amine at single phase, normalized to 100 weight % of water, alcohol amine and EPh [1, 11] | alcohol amine at single phase, normalized to 100 weight % of water, alcohol amine and EPh [1, 12] | alcohol amine at single phase, normalized on total weight % [2] | alcohol amine at single phase, normalized on total weight % [3] | Structure (SMILES) |
| --- | --- | --- | --- | --- | --- | --- | --- | --- | --- | --- | --- | --- | --- | --- | --- | --- | --- | --- | --- | --- |
| 4.8 Grams | 12.3 Grams | 21.5 Grams | 26.8 Grams | 28.7 Grams | 29.2 Grams | 29 Grams | 26.7 Grams | 17.8 Grams | 5 wt % | 11 wt % | 18 wt % | 21 wt % | 22 wt % | 23 wt % | 23 wt % | 22 wt % | 15 wt % | 21 wt % | – | CC(C)(N)CO [AMP, 2-amino-2-methyl-1-propanol] |
| 2.3 Grams | 12.7 Grams | 26.9 Grams | 40.5 Grams | 45.4 Grams | 44 Grams | 40 Grams | 34 Grams | 26.1 Grams | 2 wt % | 11 wt % | 21 wt % | 29 wt % | 32 wt % | 30 wt % | 29 wt % | 26 wt % | 20 wt % | 25 wt % | – | NCCO [MEA, monoethanolamine] |
| 3.5 Grams | 16 Grams | 26.8 Grams | 32.2 Grams | 33.5 Grams | 32.9 Grams | 31.1 Grams | 26 Grams | 17.5 Grams | 3 wt % | 14 wt % | 21 wt % | 24 wt % | 25 wt % | 25 wt % | 24 wt % | 20 wt % | 15 wt % | 21 wt % | 21 wt % | CC(O)CN (stereo not shown) [MIPA, monoisopropanolamine] |
